The source of these data is ChEMBL document CHEMBL1201862, “PubChem BioAssay data set” (2004).

By IC50 is commonly meant the concentration needed to halve the response being measured. As usually defined, the CC50 is the concentration giving 50% cytotoxicity. For orientation: EC50 means the midpoint of the concentration-response curve. The term AC50 denotes the midpoint of the concentration-response curve, whichever way the signal moves.

Assay [1] is described as follows: decrease of insulin promoter-GFP reporter – imaging, high-content screening, mouse beta cells (AID 1628). It counts as functional. As to conditions: MIN6.
The nature of assay [2]: MIN6 cell viability loss – mouse insulinoma, cytotoxicity control, dose response (AID 2122).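 Note: confirmatory high-throughput counterscreen run to flag cytotoxic compounds.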 It counts as functional.
The test system of assay [3] is Vero. Kind of assay: viability of Vero cells under compound – cytotoxicity control for flavivirus capping enzyme inhibitors (AID 588742). It counts as functional. The note with it: Chlorocebus sabaeus.
For the next assay, the system named is HEK293. Nature of the assay: cells. It counts as functional, cell-based. As to conditions: Homo sapiens.
Assay [4] has as its target T1, Nuclear receptor subfamily 0 group B member 1 (Homo sapiens, UniProt P51843).
T1 sequence (P51843 whole entry): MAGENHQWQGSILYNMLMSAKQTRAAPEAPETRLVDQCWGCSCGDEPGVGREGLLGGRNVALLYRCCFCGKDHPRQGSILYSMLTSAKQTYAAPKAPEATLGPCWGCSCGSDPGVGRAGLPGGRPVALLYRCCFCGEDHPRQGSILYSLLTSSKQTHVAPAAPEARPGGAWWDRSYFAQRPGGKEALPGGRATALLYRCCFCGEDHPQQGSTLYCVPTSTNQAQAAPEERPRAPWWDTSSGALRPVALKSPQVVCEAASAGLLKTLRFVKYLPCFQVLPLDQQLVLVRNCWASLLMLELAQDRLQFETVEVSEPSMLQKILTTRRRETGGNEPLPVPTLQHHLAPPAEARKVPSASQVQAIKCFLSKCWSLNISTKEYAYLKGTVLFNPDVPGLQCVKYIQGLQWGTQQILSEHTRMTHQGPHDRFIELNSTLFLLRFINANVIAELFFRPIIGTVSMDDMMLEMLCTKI
Nature of the assay: Luminescence-based cell-based high throughput dose response assay for inhibitors of the orphan nuclear receptor subfamily 0, group B, member 1 (DAX1; NR0B1). [Related pubchem assays (depositor defined):AID504766, AID504790]. It counts as functional.

Assay [5] can be described thus: HEK-293T viability loss after treatment – luminescence, T-cell screen hits, cytotoxicity control for TCR NF-kB inhibitor project, dose response (AID 489026).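 Note: cells exposed to compound about 14 hours before the viability readout.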 It counts as functional, cell-based.
Assay [6] in a line: Trypanosoma cruzi growth suppression in host cells – NIH3T3 host cells, beta-gal luminescence, confirmation (AID 2044).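 Note: intracellular parasites grown in NIH/3T3 mouse fibroblasts as host cells; luminescent beta-galactosidase reporter signal from transgenic T. cruzi replicating inside host cells; inhibitors lower the luminescence signal.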 The assay is classed as functional, cell-based.
A short description of assay [7]: NIH3T3 cell viability loss – ATP luminescence, mouse fibroblasts, counter-screen, dose response (AID 2010).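 Note: cells exposed to compound for about 90 hours before reading.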 The assay is classed as functional, cell-based.
For the next assay, the target named is Prothrombin (Bos taurus, UniProt P00735). Nature of the assay: thrombin protease inhibitors – biochemical, fluorescence polarization, uHTS hits, dose response (AID 602369). The assay is classed as functional. (In general: Polarisation of emitted light reports the rotation of a fluorescent probe.)
Assay [8] has as its system Vero. Kind of assay: cells. The assay is classed as functional. The note with it: Chlorocebus sabaeus.
The nature of assay [9]: alpha-synuclein stem-loop luciferase translation blockers – H4 neuroglioma cells, luminescence, confirmation (AID 1988). The assay is classed as functional, cell-based.
Assay [10] addresses 72 kDa type IV collagenase (Homo sapiens, UniProt P08253). Kind of assay: Dose Response validation of uHTS RPN11 inhibitor hits using a MMP-2 Fluorescence assay. It counts as functional.
Assay [11] deals with 26S proteasome non-ATPase regulatory subunit 14 (Homo sapiens, UniProt O00487). Nature of the assay: inhibition of proteasome subunit RPN11 – biochemical, fluorescence polarization, uHTS hits, confirmation (AID 602368). The assay is classed as functional.
The nature of assay [12]: luciferase reporter signal suppression in cells – H4 neuroglioma cells, luminescence, dose response (AID 1990). The assay is classed as functional, cell-based.
Assay [13] in a line: Luminescence Cell-Based Dose Response HTS to Identify Inhibitors of 5'UTR Stem-Loop Driven Prion Protein mRNA Translation in H4 Neuroglioblastoma Cells. [Related pubchem assays: 1827 (Project Summary), 1813 (Primary HTS)]. The assay is classed as functional.
Assay [14] has as its target T2, Ubiquitin-conjugating enzyme E2 N (Homo sapiens, UniProt P61088).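 Note: Dose-response confirmation in a TR-FRET assay detecting UBC13-driven polyubiquitin chain formation, inhibition measured.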
T2 sequence (P61088 whole entry): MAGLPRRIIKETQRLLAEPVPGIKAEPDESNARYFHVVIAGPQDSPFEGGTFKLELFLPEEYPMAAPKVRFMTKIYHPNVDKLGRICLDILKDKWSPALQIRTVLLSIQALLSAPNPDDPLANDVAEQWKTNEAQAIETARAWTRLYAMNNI
The assay is classed as functional.

For assay [15], the target named is G-protein coupled receptor 55 (Homo sapiens, UniProt Q9Y2T6). Kind of assay: inhibition of LPI-stimulated GPR55 beta-arrestin translocation – imaging, U2OS, beta-arrestin-GFP, LPI agonist, primary screen (AID 2013).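 Note: antagonist potency measured as reduced agonist-driven arrestin aggregation.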 The assay is classed as functional.
Assay [16] has as its target T3, Zinc finger protein mex-5 (Caenorhabditis elegans, UniProt Q9XUB2).
T3 sequence (Q9XUB2 whole entry): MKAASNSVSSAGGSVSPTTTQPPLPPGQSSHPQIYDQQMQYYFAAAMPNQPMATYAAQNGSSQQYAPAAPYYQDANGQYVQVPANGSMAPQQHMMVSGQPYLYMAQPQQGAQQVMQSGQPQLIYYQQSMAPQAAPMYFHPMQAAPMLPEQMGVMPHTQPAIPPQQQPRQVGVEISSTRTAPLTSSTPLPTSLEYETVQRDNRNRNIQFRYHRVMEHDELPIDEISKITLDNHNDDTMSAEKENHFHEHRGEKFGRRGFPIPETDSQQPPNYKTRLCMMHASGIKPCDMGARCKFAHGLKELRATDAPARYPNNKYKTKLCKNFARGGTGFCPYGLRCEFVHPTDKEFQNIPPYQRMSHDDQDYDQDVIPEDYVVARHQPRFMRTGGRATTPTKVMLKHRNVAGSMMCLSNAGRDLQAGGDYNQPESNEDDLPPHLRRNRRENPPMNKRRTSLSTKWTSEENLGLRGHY
Nature of the assay: potency of MEX-5 RNA-binding blockers – biochemical, C. elegans, fluorescence polarization, dose response (AID 1960).

For assay [17], the target named is T4, RNA-binding protein pos-1 (Caenorhabditis elegans, UniProt G5EF15).
T4 sequence (G5EF15 whole entry): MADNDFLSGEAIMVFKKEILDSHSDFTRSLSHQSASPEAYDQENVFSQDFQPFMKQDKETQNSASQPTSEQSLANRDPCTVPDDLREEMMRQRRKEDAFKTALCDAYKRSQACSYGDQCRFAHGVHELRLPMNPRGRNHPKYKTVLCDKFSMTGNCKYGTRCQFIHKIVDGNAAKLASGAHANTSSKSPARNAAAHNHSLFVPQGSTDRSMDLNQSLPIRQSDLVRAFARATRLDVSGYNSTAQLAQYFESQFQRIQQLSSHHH
Kind of assay: disruptors of C. elegans POS-1 RNA interaction – biochemical, fluorescence polarization, dose response (AID 1964).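 Note: purified POS-1 fused to maltose binding protein made in E. coli; potency of compounds blocking POS-1 binding to fluorescent RNA.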

Another assay concerns INS1. Kind of assay: INS-1E survival protection against cytokine death – cell-based, luminescence, retest, dose response (AID 449756).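 Note: cell death triggered by IL-1 beta plus TNF-alpha plus IFN-gamma mixture; protective hits raise ATP signal compared with cytokine alone wells.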 The note with it: Rattus norvegicus. The assay is classed as functional.

Calls of active or inactive are those of the source. A value given as a limit tells only on which side of the number the result lay.

Chain of G-protein coupled receptor 55 (Q9Y2T6 whole entry): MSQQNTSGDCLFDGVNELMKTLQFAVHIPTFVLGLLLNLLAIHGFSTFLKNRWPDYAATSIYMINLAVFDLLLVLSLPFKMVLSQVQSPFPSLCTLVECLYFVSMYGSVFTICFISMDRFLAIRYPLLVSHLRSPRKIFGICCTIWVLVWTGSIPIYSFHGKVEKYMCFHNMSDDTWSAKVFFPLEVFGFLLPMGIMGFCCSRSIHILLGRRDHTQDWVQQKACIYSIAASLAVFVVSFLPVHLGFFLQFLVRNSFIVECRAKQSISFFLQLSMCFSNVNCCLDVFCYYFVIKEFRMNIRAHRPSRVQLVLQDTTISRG
Chain of 72 kDa type IV collagenase (P08253 whole entry): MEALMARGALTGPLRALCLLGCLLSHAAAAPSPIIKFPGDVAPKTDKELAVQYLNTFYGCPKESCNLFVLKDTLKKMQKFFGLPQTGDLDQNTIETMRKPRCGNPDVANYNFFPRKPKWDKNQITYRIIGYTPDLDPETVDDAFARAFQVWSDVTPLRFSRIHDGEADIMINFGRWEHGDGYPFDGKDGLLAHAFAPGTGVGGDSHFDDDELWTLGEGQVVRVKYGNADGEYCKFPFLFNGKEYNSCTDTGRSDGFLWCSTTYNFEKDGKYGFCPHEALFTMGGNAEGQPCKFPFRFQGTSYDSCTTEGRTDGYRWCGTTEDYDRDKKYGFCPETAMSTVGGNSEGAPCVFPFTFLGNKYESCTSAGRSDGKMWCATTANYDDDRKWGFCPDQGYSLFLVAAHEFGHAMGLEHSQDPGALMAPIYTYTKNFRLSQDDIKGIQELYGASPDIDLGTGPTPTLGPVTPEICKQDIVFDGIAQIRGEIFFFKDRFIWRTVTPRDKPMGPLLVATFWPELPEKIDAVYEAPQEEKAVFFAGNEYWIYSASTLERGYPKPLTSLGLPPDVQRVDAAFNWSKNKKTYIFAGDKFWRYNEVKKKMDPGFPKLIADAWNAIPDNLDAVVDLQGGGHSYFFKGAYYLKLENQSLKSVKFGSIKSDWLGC
Chain of 26S proteasome non-ATPase regulatory subunit 14 (O00487 whole entry): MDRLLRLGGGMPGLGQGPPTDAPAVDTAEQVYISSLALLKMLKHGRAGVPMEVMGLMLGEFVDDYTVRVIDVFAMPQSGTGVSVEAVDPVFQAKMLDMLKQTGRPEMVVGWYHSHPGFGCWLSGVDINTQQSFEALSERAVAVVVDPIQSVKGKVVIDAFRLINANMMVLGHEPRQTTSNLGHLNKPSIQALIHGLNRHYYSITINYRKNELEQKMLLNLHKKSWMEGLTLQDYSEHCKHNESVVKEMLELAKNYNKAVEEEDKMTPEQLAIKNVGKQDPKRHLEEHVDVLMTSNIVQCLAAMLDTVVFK

On to `COC(=O)c1[nH]c2ccccc2c1NC(=O)CN1CCCCCC1`, for which the IC50 in [1] is 3.51 µM (active); in [2], 2.63 µM (active).

For `COc1ccc(CSc2nnc(NC(C)=O)s2)cc1[N+](=O)[O-]`, the cytotoxic concentration (CC50) in the assay with Vero [3] is > 40 µM (active).

On to `COc1ccccc1N1CCN(S(=O)(=O)c2cc(C(F)(F)F)cc(C(F)(F)F)c2)CC1`, for which the IC50 (in the assay with HEK293; in assay [4]) was > 67.5 µM (inactive) in each case.

As for `O=C(Nc1nc2ccc(S(=O)(=O)N3CCCC3)cc2s1)C1CCCCC1`, the IC50 in [5] was > 80 µM (inactive).

As to `CCOCCCNc1[nH]cnc2c3ccccc3nc1-2`, the results for the IC50 in assay [1] and in assay [2] were 2.76 µM (active) and 2.31 µM (active), respectively.

In the case of `O=C(CN1C(=O)NC2(CCCC2)C1=O)NCC1CCCO1` (stereo not given), the IC50 (in the assay with HEK293; in assay [4]) was > 67.5 µM (inactive) throughout.

On to `CN1CCN(S(=O)(=O)c2cccc(C(=O)Nc3sc4c(c3-c3nc5ccccc5[nH]3)CCCC4)c2)CC1`, for which the results for the half-maximal effective concentration (EC50) in assay [6] and in [7] were 1.67 µM (active) and > 60 µM (not active), respectively. In the assay with Vero [3], the cytotoxic concentration (CC50) was > 40 µM (active).

For `CN1CCc2c(sc3c2C(=O)NC(c2cn(Cc4ccccc4)c4ccccc24)N3)C1` (stereo not given), the IC50 at Prothrombin is 16 µM (active); in assay [10] it was > 100 µM (inactive); in assay [11] it was 23.4 µM (active); in assay [14], > 20 µM (inactive). The CC50 in the assay on Vero [8] is 17.1 µM (active). The EC50 in [9] was 5.25 µM (active); in assay [12] it was 8.71 µM (active); in [13] it was 8.12 µM (active).

For `Brc1ccc2c(c1)C(C1=NCCN1)c1ccccc1CS2` (stereo not given), the IC50 in assay [5] is > 80 µM (inactive).

With `COc1ccc(OC)c(N2C(=O)NC(=O)/C(=C/c3c(C)[nH]c4ccccc34)C2=O)c1`, the IC50 in assay [15] was < 0.5 µM (active).

With `COc1ccc(N2C(=O)NC(=O)/C(=C\c3cn(CC(=O)N4CCOCC4)c4ccccc34)C2=O)c(OC)c1`, the EC50 in assay [16] and in assay [17] was > 300 µM (not active) throughout. For the same compound, in assay [15], the IC50 was 1.59 µM (active).

In the case of `O=C(CSc1nnc(Cc2cc(O)nc(O)n2)n1-c1ccc(F)cc1)N1CCCCC1`, the IC50 (with HEK293; in assay [4]) was > 67.6 µM (inactive) each time.

As for `Cc1[nH]n(C2=NCCS2)c(=O)c1N=Nc1cccc(C(F)(F)F)c1`, the concentration for a half-maximal effect (EC50) in assay [6] is 0.669 µM (active); in [7] it was > 60 µM (not active). The half-maximal activity concentration (AC50) in the assay on INS1 is 2.5 µM (active). Moreover, the values for the IC50 in assay [1] and in [2] were 1.75 µM (active) and 2.2 µM (active), respectively.

As to `Cn1c(-c2ccccc2)c(/C=N/NC(=O)c2ccc(O)cc2)c2ccccc21`, the IC50 (in the assay on HEK293; in assay [4]) was > 67.5 µM (inactive) in each case.
